From patent US4812462A, “4,5,6,7-tetrahydro-1H-imidazo[4,5-c]pyridine-6-carboxylic acid analogs having antihypertensive activity” (Warner-Lambert Company, priority 1986, dated 1989)
Where a name gives a salt, the structure may show the parent alone.

What was measured:
[1] = biological target: angiotensin II binding to rat adrenal receptor preparations; assay: inhibition of 125I-angiotensin II binding to rat adrenal receptor preparations
[2] = test system: 2 kidney, 1-clip Goldblatt hypertensive rat (RHR); assay: blood pressure lowering in conscious 2 kidney, 1-clip Goldblatt (renal) hypertensive rats (RHR), AHP3; assay type: in vivo; conditions: 30 mg/kg ip, read-out: Max % decrease in blood pressure, 30 mg/kg ip in RHR
Description: (§1) Thus, for example, compounds of formula I when administered intraperitoneally or orally to 2 kidney, 1-clip Goldblatt (renal) hypertensive rats (See S Sen, et al., "Role of Renin-Angiotensin System in Chronic Renal Hypertensive Rats," Hypertension 1:427-434 (1979) and Clin. Soc. 57:53-62, 1979, "Antihypertensive Effect of Prolonged Blockade of Angiotensin Formation in Benign and Malignant, one-and two-kidney Goldblatt Hypertensive Rats".) at doses in the range of 1-100 mg/kg cause 10-80 mmHg drops in blood pressure. […] Angiotensin binding inhibition activity and blood pressure lowering activity in renal hypertensive rats of the optimally substituted examples of formula I are listed in Table 1. Blood pressure lowering activity in spontaneously hypertensive rats of optimally substituted examples of formula II are listed in Table 2.
(§2) […] EVALUATION (AHP3)
(§3) A Method for the Direct Monitoring of Aortic Blood Pressure and Heart Rate from Conscious Rats
(§4) The continuous monitoring of pulsatile blood pressure (BP) from unrestrained conscious rats surgically equipped with polyethylene cannulas was accomplished by means of a computer assisted data capture scheme (CADCS). The basic elements of the methodology are the cannulation procedure and the CADCS.
(§5) Rats were anesthetized with Telazol (1:1 tiletamine HCl and zolazepam HCl); 20-40 mg/kg IM and the descending aorta exposed via a midline incision. Cannulas fabricated from polyethylene tubing were inserted into the aorta via an undersized puncture hole below the renal arteries. The puncture hole was made by a 23 G disposable needle with a section of the aorta clamped off above and below the puncture site. The cannulas, consisting of a PE100 (0.86 mm ID) body and a PE50 (0.58 mm ID) tip, were attached to a trocar, inserted through the psoas muscle, and passed subcutaneously along the midline of the back and externalized between the ears. The cannulas were anchored to the psoas muscle and between the scalulae (3-0 green braided suture). The midline incision was closed in two steps (muscle first, skin second) using continuous over-and-over sutures (4-0 chronic). Each rat was then given penicillin 30,000 units subcutaneously (Penicillin G Procaine Sterile Suspension).
(§6) The rats were fitted with a harness-springswivel assembly designed to protect the cannula and to provide the rat relative freedom of movement. The harnesses were fabricated from nylon hook and loop tape cemented to a metal plate to which spring wires (18-8 stainless steel), were attached to brass swivels. Each polyethylene cannula was channeled through a spring and connected through a swivel to a pressure transducer (Model P23Gb; Statham Instruments; Hato Rey, Puerto Rico) and an infusion pump (Sage model 234-7; Orion Research, Cambridge, Mass.) by means of PE100 tubing. While on test, each rat received a continuous slow infusion of heparinized saline solution (approximately 0.40 ml or 40 units of heparin per 24 hr period) to prevent clot formation. Additional "flushes" of the cannula with heparinized saline were carried out when the aortic pulse pressure (systolic minus diastolic) was less than 25 mm Hg.
(§7) The pulsatile blood pressure of each of 32 rats was monitored continuously by two signal conditioning units (Gould, Clev., Ohio). The signals from these units were monitored and digital data for mean, systolic, and diastolic blood pressures as well as for heart rate were calculated every 5 min by two in-laboratory computers (Hewlett Packard, Cupertino, Calif.). These in-laboratory computers have the capacity to store 32 days of this 5 min data. Communication with the mainframe research computer (IBM 3083) from the two inlaboratory computers allowed for data analysis and report generation. […]

[3] = test system: spontaneously hypertensive rat (SHR); assay: blood pressure lowering in conscious spontaneously hypertensive rats (SHR), AHP3; assay type: in vivo; conditions: 30 mg/kg PO, read-out: Max % decrease in blood pressure, 30 mg/kg PO in SHR
Description: as §1, §2, §3, §4, §5, §6, §7

Row | IC50 [1] | SMILES | change in vivo at 30 mg/kg [2] | change in vivo at 30 mg/kg [3]
1 | 0.24 µM | O=C(O)C1Cc2c(ncn2CCC2CCCCC2)CN1C(=O)C(c1ccccc1)c1ccccc1 (stereo not shown) [Example 4, 1-(2-Cyclohexylethyl)-5-diphenylacetyl-4,5,6,7-tetrahydro-1H-imidazo[4,5-c]pyridine-6-carboxylic acid] | -13% | –
2 | – | Cc1cc(Cn2cnc3c2CC(C(=O)O)N(C(=O)C(c2ccccc2)c2ccccc2)C3)ccc1N (stereo not shown) [Example 13, 1-(4-Amino-3-methylphenyl)methyl-5-diphenylacetyl-4,5,6,7-tetrahydro-1H-imidazo[4,5-c]pyridine-6-carboxylic acid] | -22% | –
3 | – | COc1ccc(N2C(=O)C3Cc4c(ncn4Cc4ccccc4)CN3C2=S)cc1 (stereo not shown) [Example 128, 6,7,8a,9-Tetrahydro-7-(4-methoxyphenyl)-1-(phenylmethyl)-6-thioxo-1H-diimidazo[1,5-a:4',5'-d]pyridine-8(4H)-one] | – | -32%
4 | – | CC(C)(C)N1C(=O)C2Cc3[nH]cnc3CN2C1=O (stereo not shown) [Example 156, 7-(1,1-Dimethylethyl)-8a,9-dihydro-1H-diimidazo[1,5-a:4',5'-d]pyridine-6,8(4H,7H)-dione] | – | -18%
5 | – | COc1ccc(N2C(=O)C3Cc4c(ncn4Cc4ccccc4)CN3C2=O)cc1 (stereo not shown) [Example 133, 1H-Diimidazo[1,5-a:4',5'-d]pyridine-6,8(4H,7H)-dione, 8a,9-dihydro-7-(4-methoxyphenyl)-1-(phenylmethyl)-, monohydrochloride] | – | -29%
6 | – | COc1ccc(N2C(=O)C3Cc4[nH]cnc4CN3C2=O)c(OC)c1 (stereo not shown) [Example 157, 7-(2,4-Dimethoxyphenyl)-8a,9-dihydro-1H-diimidazo[1,5-a:4',5'-d]pyridine-6,8(4H,7H)-dione] | – | -22%
7 | 0.1 µM | O=C(O)C1Cc2c(ncn2CCC23CC4CC(CC(C4)C2)C3)CN1C(=O)C(c1ccccc1)c1ccccc1 (stereo not shown) [Example 2, 1-(2-(1-Adamantyl)ethyl)-5-diphenylacetyl-4,5,6,7-tetrahydro-1H-imidazo[4,5-c]pyridine-6-carboxylic acid] | -26% | –
8 | – | COc1ccc(N2C(=O)C3Cc4[nH]cnc4CN3C2=S)cc1 (stereo not shown) [Example 159, 1,4,6,7,8a,9-Hexahydro-7-(4-methoxyphenyl)-6-thioxo-8H-diimidazo[1,5-a:4',5'-d]pyridine-8-one] | – | -39%
9 | – | CN(C)c1ccc(N2C(=O)C3Cc4[nH]cnc4CN3C2=S)cc1 (stereo not shown) [Example 160, 7-[4-(Dimethylamino)phenyl]-1,4,6,7,8a,9-hexahydro-6-thioxo-8H-diimidazo[1,5-a:4',5'-d]pyridine-8-one] | – | -34%
10 | – | O=C1C2Cc3[nH]cnc3CN2C(=S)N1c1ccccc1 (stereo not shown) [Example 161, 1,4,6,7,8a,9-Hexahydro-7-phenyl-6-thioxo-8H-diimidazo[1,5-a:4',5'-d]pyridine-8-one] | – | -28%
11 | – | CC(C)N1C(=O)C2Cc3nc[nH]c3CN2C1=O (stereo not shown) [Example 154, 8a,9-Dihydro-7-(1-methylethyl)-3H-diimidazo[1,5-a:4',5'-d]-pyridine-6,8(4H,7H)-dione] | – | -39%
12 | 2 µM | COc1ccc(Cn2cnc3c2C[C@@H](C(=O)O)N(C(=O)CC2CCCCC2)C3)cc1C [Example 26, (S)-5-(cyclohexylacetyl)-4,5,6,7-tetrahydro-1-[(4-methoxy-3-methylphenyl)methyl]-1H-imidazo-[4,5-c]-pyridine-6-carboxylic acid] | -18% | –
13 | – | COc1ccc(N2C(=O)C3Cc4c(ncn4Cc4ccc(OC)c(C)c4)CN3C2=S)cc1 (stereo not shown) [Example 127, 6,7,8a,9-Tetrahydro-1-[(4-methoxy-3-methylphenyl)-methyl]-7-(4-methoxyphenyl)-6-thioxo-1H-diimidazo-[1,5-a:4',5'-d]-pyridine-8(4H)-one] | – | -24%
14 | – | CC(C)N1C(=O)C2Cc3[nH]cnc3CN2C1=S (stereo not shown) [Example 162, 1,4,6,7,8a,9-Hexahydro-7-(1-methylethyl)-6-thioxo-8H-diimidazo-(1,5-a:4',5'-d]pyridine-8-one] | – | -39%
15 | 2.4 µM | O=C(O)C1Cc2c(ncn2CCc2ccccc2)CN1C(=O)Cc1ccccc1 (stereo not shown) [Example 6, 1-(2-Phenylethyl)-5-phenylacetyl-4,5,6,7-tetrahydro-1H-imidazo[4,5-c]pyridine-6-carboxylic acid] | -16% | –
16 | 6.8 µM | O=C(O)[C@@H]1Cc2c(ncn2Cc2ccccc2)CN1C(=O)C(c1ccc(Cl)cc1)c1ccc(Cl)cc1 [Example 22, (S)-5-[bis(4-chlorophenyl)acetyl]-4,5,6,7-tetrahydro-1-(phenylmethyl)-1H-imidazo[4,5-c]pyridine-6-carboxylic acid] | -27% | –
17 | 2.1 µM | O=C(O)[C@@H]1Cc2c(ncn2Cc2ccccc2)CN1C(=O)C(c1ccc(F)cc1)c1ccc(F)cc1 [Example 23, (S)-5-[bis(4-fluorophenyl)acetyl]-4,5,6,7-tetrahydro-1-(phenylmethyl)-1H-imidazo[4,5-c]pyridine-6-carboxylic acid] | -22% | –
18 | 0.07 µM | COc1ccc(Cn2cnc3c2CC(C(=O)O)N(C(=O)C(c2ccccc2)c2ccccc2)C3)cc1C (stereo not shown) [Example 19, 1-(3-Methyl-4-methoxyphenyl)methyl-5-diphenylacetyl-4,5,6,7-tetrahydro-1H-imidazo[4,5-c]-pyridine-6-carboxylic acid] | -14% | –
19 | – | CC(C)N1C(=O)[C@@H]2Cc3ncn(C)c3CN2C1=O [Example 129, (S)-8a,9-dihydro-3-methyl-7-(1-methylethyl)-3H-diimidazo-[1,5-a:4',5'-d]pyridine-6,8(4H,7H)-dione] | – | -36%
20 | 8 µM | O=C(O)C1Cc2c(ncn2Cc2ccccc2)CN1C(=O)C1c2ccccc2-c2ccccc21 (single isomer, unassigned) [Example 29, 1H-Imidazo[4,5-c]pyridine-6-carboxylic acid, 5-[(9H-fluoren-9-yl)carbonyl]-4,5,6,7-tetrahydro-1-(phenylmethyl)-, (+)-] | – | –
21 | – | CC(C)N1C(=O)C2Cc3c(ncn3Cc3ccccc3)CN2C1=O (stereo not shown) [Example 130, 8a,9-Dihydro-7-(1-methylethyl)-1-(phenylmethyl)-1H-diimidazo[1,5-a:4',5'-d]pyridine-6,8(4H,7H)-dione hydrobromide] | – | -21%
22 | – | COc1ccc(N2C(=O)C3Cc4c(ncn4Cc4ccc([N+](=O)[O-])c(C)c4)CN3C2=O)cc1 (stereo not shown) [Example 273, 1H-Diimidazo[1,5-c:4',5'-d]pyridine-6,8(4H,7H)-dione, 8a,9-dihydro-7-(4-methoxyphenyl)-1-[(3-methyl-4nitrophenyl)methyl], monohydrochloride] | – | -14%
23 | – | COc1ccc(N2C(=O)C3Cc4[nH]cnc4CN3C2=O)cc1 (stereo not shown) [Example 155, 8a,9-Dihydro-7-(4-methoxyphenyl)-1H-diimidazo[1,5-a:4',5'-d]pyridine-6,8(4H,7H)-dione] | – | -39%
24 | – | COc1ccc(Cn2cnc3c2C[C@@H](C(=O)O)N(C(=O)C(c2ccc(C)cc2)c2ccc(C)cc2)C3)cc1C [Example 25, (S)-[bis(4-methylphenyl)acetyl]-4,5,6,7-tetrahydro-1-[(4-methoxy-3-methylphenyl)methyl]-1H-imidazo[4,5-c]-pyridine-6-carboxylic acid] | -12% | –
